Measured values from PubChem BioAssay (NCI).
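Dose response: 5 concentrations. Exposure: 48 h. Format: 96-well plates. Endpoint: linear interpolation; highest concentration if not reached. TGI marks complete inhibition of growth.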

Key:
Experiment in all cases: NCI anticancer screen, dose series, 48 h
M14 melanoma = test system: M14 melanoma
NCI-H226 lung = test system: NCI-H226 lung
SF-268 CNS = test system: SF-268 CNS
CCRF-CEM leukemia = test system: CCRF-CEM leukemia
K-562 leukemia = test system: K-562 leukemia
NCI/ADR-RES ovarian = test system: NCI/ADR-RES ovarian
786-0 renal = test system: 786-0 renal
DU-145 prostate = test system: DU-145 prostate
MOLT-4 leukemia = test system: MOLT-4 leukemia
RPMI-8226 leukemia = test system: RPMI-8226 leukemia

Row | SMILES | TGI (M14 melanoma) | TGI (NCI-H226 lung) | TGI (SF-268 CNS) | TGI (CCRF-CEM leukemia) | TGI (K-562 leukemia) | TGI (NCI/ADR-RES ovarian) | TGI (786-0 renal) | TGI (DU-145 prostate) | TGI (MOLT-4 leukemia) | TGI (RPMI-8226 leukemia)
1 | CCOC(=O)C1C(=O)C=C(c2cc(C)ccc2O)CC1c1cccc(Br)c1 (stereo not given) | 37 µM | 37.3 µM | 77.9 µM | 71.7 µM | 46.8 µM | 46.1 µM | 39.8 µM | > 100 µM | 43.7 µM | 33.8 µM
2 | O=C1N[C@@H](c2c[nH]c3ccc(Br)cc23)C(=O)N[C@H]1c1c[nH]c2ccc(Br)cc12 | 21.2 µM | 26.9 µM | 26.3 µM | 24 µM | 18.9 µM | > 100 µM | 25.6 µM | 27.3 µM | 20.1 µM | 38.2 µM
3 | CC(C)(C)C(=O)C(C#N)C(=O)C(C)(C)C | > 100 µM | > 100 µM | > 100 µM | > 100 µM | > 100 µM | > 100 µM | > 100 µM | > 100 µM | > 100 µM | > 100 µM
4 | COc1ccc(N=Nc2ccc3oc(=O)c(C(=O)Nc4ccc(OC)cc4)cc3c2)cc1 | 43.5 µM | 32.8 µM | 48.8 µM | > 100 µM | > 100 µM | 51.7 µM | 44.5 µM | 53.9 µM | 34.9 µM | 67.2 µM
5 | CC(C)Oc1c(O)c2c3c(oc(=O)n3C=CC2c2ccccc2F)c1OC(C)C (stereo not given) | 65.4 µM | > 100 µM | > 100 µM | 97.6 µM | > 100 µM | > 100 µM | > 100 µM | > 100 µM | 59.3 µM | 51.9 µM
6 | Cc1ccc(-n2cc(-c3ccc(Cl)cc3)c3c(NNC(=S)NCc4ccccc4)ncnc32)cc1 | 37.6 µM | > 100 µM | > 100 µM | > 100 µM | > 100 µM | 32.8 µM | 51.1 µM | > 100 µM | > 100 µM | > 100 µM
7 | COc1ccc(/C=N/NC(=O)c2ccccc2Nc2ccccc2C(=O)N/N=C/c2ccc(OC)c(OC)c2)cc1OC | > 100 µM | > 100 µM | > 100 µM | > 100 µM | > 100 µM | > 100 µM | > 100 µM | > 100 µM | > 100 µM | > 100 µM
8 | Clc1ccc(CCN2CCN(CCCc3ccccc3)CC2)cc1Cl | 28.1 µM | 38 µM | 35.3 µM | > 100 µM | > 100 µM | 28.5 µM | 30.2 µM | 30.4 µM | > 100 µM | 55.2 µM
9 | CCC1(CC)C(=O)N(C(=O)c2ccc(Cl)cc2)N(C(=O)c2ccccc2Cl)C1=O | > 100 µM | 31.5 µM | > 100 µM | > 100 µM | > 100 µM | > 100 µM | > 100 µM | > 100 µM | 52.2 µM | 78.9 µM
10 | O=C(C(Cl)=C(Nc1ccccc1)Nc1ccccc1)C(Cl)Cl | 43.8 µM | 93.6 µM | 76.7 µM | 77.6 µM | 86.4 µM | > 100 µM | 69.1 µM | > 100 µM | 45.1 µM | 78.9 µM
11 | CC(C)(C)OC(=O)N1CC(COS(C)(=O)=O)c2ccc(O)cc21 (stereo not given) | 3.14 µM | 4.67 µM | 4.33 µM | 3.06 µM | 9.54 µM | 4.07 µM | 11 µM | 3.53 µM | 3.92 µM | 3.96 µM
